Test [1] deals with brown patch (Rhizoctonia solani). The following applies: in vivo; cited from earlier work.
A further test deals with Zoysia Matrella. Briefly: Biological Example 1: sod growth test, weight of roots, runners and erect stems after spray treatment. Type of test: in vivo. The following applies: for Roots weight: 334 ppm spray, 2,000 L/ha; for Roots weight / Erect stem weight / Erect stems/runners / Roots weight vs. untreated / Roots/(roots + runners + erect stems) / Roots/runners / Runner weight: 170 days later; for Erect stem weight / Erect stems/runners / Roots weight vs. untreated / Roots/(roots + runners + erect stems) / Roots/runners / Runner weight: 334 ppm spray. The text has this: Test crop: Zoysia Matrella
Test method: Z. Matrella sod was laid in a roughly 15 cm checked pattern, and, approximately one month later, penflufen prepared to a predetermined concentration (Cerenturf Forte; aqueous suspension of 22.7 wt % penflufen and 77.3% surfactant and water, prepared according to a normal method) was sprayed thereon (2,000 L/ha). 170 days later, a hole cutter was used to cut out sod sections and interstitial sections, the sections were separated into roots, runners, and erect stems, and the weight of each was measured.

For the next test, the system named is Agrostis stolonifera. The test is described as follows: Biologic Example 2: seeded lawn test, length of above-ground and root portions after soil treatment. In kind it is in vivo. The procedure: Test crop: Agrostis stolonifera Test method: Plastic cups (diameter 20 cm, depth 5 cm) were filled with a soil mixture (1:1 mixture of sand and mulch), the soil was treated (2,000 L/ha water) with penflufen prepared to a predetermined concentration (Cerenturf Forte) on the day A. stolonifera was planted and at 0.5 leaf cycles, after which germination state was examined. In order to ensure evenness of irrigation, an atomizer was used for a fixed number of pushes, and water amount was monitored so as to be uniform. A basal application was not used. Examination method: Cuttings were taken at random from the test area, and the lengths of the above-ground and root portions were measured.

Setting [2] is: 142 ppm, treated at 0.5 leaf cycles, 5 days after treatment.
Setting [3] is: 142 ppm, treated on day of planting, 20 days after treatment.
Where [4] appears, read: 283 ppm, treated at 0.5 leaf cycles, 5 days after treatment.
The mark [5] stands for this setting: 283 ppm, treated on day of planting, 20 days after treatment.
Where [6] appears, read: 525 ppm, treated at 0.5 leaf cycles, 5 days after treatment.
Where [7] appears, read: 525 ppm, treated on day of planting, 20 days after treatment.

Consider 2 compounds from patent publication US20160029629A1, “LAWN GROWTH-PROMOTING AGENT AND METHOD OF USING SAME” (BAYER CROPSCIENCE AKTIENGESELLSCHAFT, priority 2013, published 2016).

In the case of `Cc1nn(C)c(F)c1C(=O)Nc1ccccc1C(C)CC(C)C` (stereo not shown) [Penflufen, N-[2-(1,3-dimethylbutyl)phenyl]-5-fluoro-1,3-dimethyl-1H-pyrazol-4-carboxamide], the “Effectiveness against brown patch” value in test [1] was “extremely effective”. In the test with Zoysia Matrella (both the interstitial section and the sod section), the “Amount of roots compared to the untreated area” value is reported as “increase in the amount of roots”. Also, the “Ratio of the root weight to the total weight of the roots, runners, and erect stems, treated vs untreated area” value with Zoysia Matrella (in vivo) is reported as “higher in the treated area than in the untreated area”. Moreover, in the test on Zoysia Matrella (interstitial section), the “Amount of roots compared to the untreated area” value was “especially marked increase”, the “Roots weight” value turned out to be 1.13 g, the “Erect stem weight” value is given as 4.57 g and the Erect stems/runners amounted to 124%. Besides, in the test on Zoysia Matrella (interstitial section), the “Roots weight vs. untreated” value is 127%, the “Roots/(roots + runners + erect stems)” value was 12.02%, the Roots/runners turned out to be 31% and the “Runner weight” value is 3.70 g. Further, in the test on Zoysia Matrella (sod section), the “Roots weight” value came out at 1.57 g, the “Erect stem weight” value came out at 11.52 g, the Erect stems/runners was determined as 130% and the “Roots weight vs. untreated” value is given as 103%. In the test on Zoysia Matrella (sod section), the “Roots/(roots + runners + erect stems)” value was determined as 7.16%, the Roots/runners is on record as 18% and the “Runner weight” value is on record as 8.84 g. In the test with Agrostis stolonifera (setting [2]), the “Above-ground portion (mm)” value is 18.8 mm, the “Roots (mm)” value amounted to 3.9 mm and the Roots/above-ground portion % turned out to be 20.6%. Further, in the test on Agrostis stolonifera (setting [3]), the “Above-ground portion (mm)” value turned out to be 15.9 mm, the “Roots (mm)” value was determined as 3.3 mm and the Roots/above-ground portion % was 20.8%. For the same compound, in the test with Agrostis stolonifera (setting [4]), the “Above-ground portion (mm)” value is recorded as 17.3 mm, the “Roots (mm)” value amounted to 3.5 mm and the Roots/above-ground portion % is 20.1%. Also, in the test on Agrostis stolonifera (setting [5]), the “Above-ground portion (mm)” value worked out at 17.3 mm, the “Roots (mm)” value was determined as 3.2 mm and the Roots/above-ground portion % is reported as 18.8%. Moreover, the “Root growth relative to above-ground portions” value with Agrostis stolonifera (registered weight (283 ppm) and half-weight, planting day and 0.5 leaf cycle treatment) is listed as “root growth tended to be promoted over that of above-ground portions”.
Turning to `Cc1nc(C(F)(F)F)c(C(=O)Nc2c(Br)cc(OC(F)(F)F)cc2Br)s1` [Thifluzamide], in the test on Agrostis stolonifera (setting [6]), the “Above-ground portion (mm)” value was 16.9 mm, the “Roots (mm)” value stood at 2.0 mm and the Roots/above-ground portion % was 12.0%. Further, in the test with Agrostis stolonifera (setting [7]), the “Above-ground portion (mm)” value is reported as 15.3 mm, the “Roots (mm)” value worked out at 1.4 mm and the Roots/above-ground portion % worked out at 9.1%.
